Our source for the melting point values is a melting point compilation (Tetko et al.; mined from patent text by program, amines drawn as free bases though some values may be those of a salt).

Usually melting point stands for the temperature, or range, at which the solid turns liquid. As for `O=S1CCc2n[nH]c(CCCN3CCN(c4ccc(F)cc4)CC3)c2C1` (stereo not given), the melting point fell in the range of 140 to 142 °C. In turn, `CC1(C)OC(c2ccc(S(C)(=O)=O)c(Cl)c2)=C(c2ccccc2)C1=O` registered a melting point of 174 to 175 °C.

Take `COc1cc(Nc2nc3ccnc(-c4ccc(N)cc4)c3o2)cc(OC)c1OC`: the melting point lay within 148 to 151 °C. `CC(C)n1nc(-c2c(NCC(N)=O)nc(N)nc2-c2ccccc2)ccc1=O` showed a melting point of 235 to 238 °C.

`CCOc1cc(F)ccc1-c1noc2c(Cl)c(OC)ccc12` came in with a melting point of 150 to 152 °C. For `CCCCc1nc2cccc(CO)c2n1Cc1ccc(-c2ccccc2C#N)cc1`, the melting point is 203 to 204 °C. Regarding `COC(=O)CCCc1cc2cc(Cl)ccc2n1S(=O)(=O)c1ccc2ncsc2c1`, the melting point fell in the range of 121 to 123 °C. Under `CCOC(=O)COc1cc(C(=O)Oc2ccc([N+](=O)[O-])cc2)c(O)c2ccccc12` stands 165 to 167 °C; under `COc1ccc(C2=NN(Cc3cccc(C(=O)O)c3)C(=O)[C@H]3CCCC[C@@H]23)cc1OC` (relative stereo), 133 to 136 °C.

The compound `Cc1cc(N)cc(C)c1NC(=O)CN1CCN(CCCC(c2ccc(F)cc2)c2ccc(F)cc2)CC1CO` (stereo not given) had a melting point of 85.2 °C. As for `COc1cc2ncc(C#N)c(Nc3ccc(Cl)cc3C)c2cc1OC`, the melting point was 227 to 229 °C. Regarding `Cc1oc(-c2ccccc2)nc1C(O)COc1ccc(CC2SC(=O)NC2=O)nc1` (stereo not given), the melting point is 55 to 72 °C. Consider `COc1ccc(CC(C)NCC(O)c2ccccc2Cl)cc1OC` (stereo not given), for which the melting point was in the range of 113 to 114 °C. Turning to `Cc1ccc(-c2ccc3c(c2)C=CCCO3)cc1`, the melting point lay in the range of 98 to 100 °C.

In turn, `Cc1c(CC(=O)NOCc2ccccc2)c2cc(OCc3nc4ccccc4s3)ccc2n1Cc1ccc(Cl)cc1` yielded a melting point of 183 to 186 °C.

Consider `COc1ccc(C(=O)N2c3ccccc3C(N3CCSc4ccccc43)=CC2C)cc1OC` (stereo not given), for which the melting point was in the range of 166 to 168 °C. Compound `O=C1Nc2ccccc2C2(c3ccccc3)OCCN12` (stereo not given) displayed a melting point of 194 °C. Under `COc1ccc2oc3cccc(NCCN4CCCC4)c3c(=O)c2c1` stands 92 to 93 °C; under `COc1cnc(CSc2nc3cc4c(cc3[nH]2)OC(F)(F)O4)c(C)c1OC`, 160 to 161 °C; under `CCOC(=O)CCc1cn(Cc2cc(OCc3ccccc3)cc(OCc3csc(-c4cnccn4)n3)c2)cc1-c1ccccc1`, 126 to 127 °C. The compound `COc1ccc(-c2nn3c(N4CCCC4)nnc3c3ccccc23)cc1` registered a melting point of 196 to 198 °C. As for `Nc1[nH]c(=S)nc2nc[nH]c12`, the melting point was 196 to 198 °C.

Compound `O=S(=O)(c1ccc(F)cc1)N1CCCC1c1ccc(F)cc1` (racemic) showed a melting point of 121 °C.

For `Cc1ccc(C=C2C=C(C(C)(C)C)C=C(C(C)(C)C)C2=O)cc1C`, the melting point fell in the range of 214 to 217 °C. For `COC(=O)[C@]1(C)Cc2c([nH]c3ccc(Br)cc23)[C@@H](c2cccc(O)c2)N1` (racemic), the melting point is 240 to 241 °C. In turn, `COc1ccc(-c2nc(C)cc(OCCN3CCN(C(c4ccccc4)c4ccccc4)CC3)n2)cc1` displayed a melting point of 132 to 133 °C. `Nc1cc(C(c2c(F)ccc(F)c2F)S(=O)(=O)CCC(F)(F)F)c(Cl)cn1` (stereo not given) displayed a melting point of 155 to 159 °C.

Compound `Cc1cccc(C(=O)NCc2cccc3c2C(=O)N(C2CCC(=O)NC2=O)C3=O)n1` (stereo not given) showed a melting point of 197 to 199 °C. For the compound `CCn1c([N+](=O)[O-])cnc1C=Cc1ccccc1`, the melting point was 231 to 233 °C. Compound `CCNC(=O)c1cc(N(C)C)ccc1[Si](C)(C)C` showed a melting point of 141 to 143 °C. As for `CCc1nccn1Cc1ccc2c(c1)Cc1c(-c3ccsc3)n[nH]c1-2`, the figure is 129 to 132 °C; as for `COc1ccc2cc(C(C)C(=O)OCc3ccc(OC(=O)OCCC(C)(C)C)cc3)ccc2c1` (stereo not given), 63 to 64 °C.

Compound `CCCc1c(COc2ccc(Cc3nnn(Cc4nnn[nH]4)n3)cc2)ccc(C(C)=O)c1O` had a melting point of 137 to 139 °C. As for `CCCCC(CNc1nc(C)c(OC(=O)OCC)c(C)n1)c1ccccc1` (stereo not given), the figure is 105 to 107 °C; as for `CC12CC(CCF)C3C4CCC(=O)C=C4CCC3C1CCC2=O` (stereo not given), 85 °C. `NS(=O)(=O)c1cccc(NC(=O)c2cnn3c(C(F)(F)F)cc(-c4ccc(F)c(F)c4)nc23)c1` came in with a melting point of 275 °C. `C[C@@H]1Cc2cc(N3C[C@H](COS(C)(=O)=O)OC3=O)ccc2N1C(=O)OCc1ccccc1` had a melting point of 72 to 73 °C. On to `CON(C(=O)c1cccnc1Cl)C1CCCCC1`, for which the melting point was in the range of 96 to 98 °C. Compound `CCOC(=O)C(=CNC1CC1)C(=O)c1cc(F)c(Cl)nc1Cl` yielded a melting point of 129 to 130 °C. As for `CCn1c(C(O)(c2ccccc2)c2ccccc2)nc(-c2ccncc2)c1-c1ccc(Cl)cc1`, the figure is 222 to 223 °C. Compound `CCOP(=O)(O)Cc1nnc2c(=O)[nH]c3cc(C(F)(F)F)ccc3n12` showed a melting point of 276 to 280 °C. Under `Cc1ccc(C(=O)C2=C(O)C(=O)N(c3ncc(S(C)(=O)=O)s3)C2c2ccc(C(C)C)cc2)cc1` (stereo not given) stands 269 to 271 °C.

Compound `O=C1NC(=O)C(Sc2ccc3ccccc3c2Br)S1` (stereo not given) came in with a melting point of 128 to 129 °C.

`CC(C)n1c(=O)ccc2cnc(Nc3ccc(N4CCN(C)CC4)cc3)nc21` displayed a melting point of 221 to 222 °C. `O=C(N[C@H]1CCCNC1=O)c1ccc(C(F)(F)F)cc1` returned a melting point of 212 to 214 °C.

The compound `O=CNCC(=O)c1cccc(Nc2ccc3ccccc3n2)c1` gave a melting point of 194 to 196 °C.

The compound `O=C1Nc2cc(C(F)(F)F)ccc2C1c1ncnc2c1cnn2C1CCCCC1` (stereo not given) returned a melting point of 277 to 280 °C. For `O=C(NCCN1CCCCC1)c1nc(NCC(c2ccccc2)c2ccccc2)c2ncn([C@@H]3O[C@H](CO)[C@@H](O)[C@H]3O)c2n1`, the melting point stood at 182 °C.

With `Nc1ccc(Cc2ccc(CS(=O)(=O)NCc3ccccc3)cc2)cc1`, the melting point lay in the range of 115 to 118 °C. `Nc1c(Cl)cc(C(O)CNCCCCCOCCc2ccccc2)cc1C(F)(F)F` (stereo not given) gave a melting point of 70 to 71.5 °C.

In the case of `COCCOc1ccc(CCNC(=O)C=Cc2ccccc2)cc1S(N)(=O)=O`, the melting point came out at 133 °C. Regarding `O=C(NCc1ccc(Cl)cc1)c1cnc2c(F)cc(C#CCCCO)cc2c1O`, the melting point was 208 to 209 °C.

`CCc1csc(-c2ccc(OCCC3CCN(c4ccc(C)nn4)CC3)cc2)n1` returned a melting point of 113 °C. `CCCCc1nc(S)c(C(=O)OCC)n1Cc1cc2c(cc1Cl)OCO2` showed a melting point of 114 °C.

In turn, `COC(=O)CCC(=O)c1ccc(-c2ccc(C#N)cc2)cc1` yielded a melting point of 149 to 151 °C. As to `O=C1CC(C(=O)O)C2(CCCCC2)C1` (stereo not given), the melting point was 146 to 147 °C. Under `Nc1ncnc2c1ncn2OCCCCP(=O)(O)O` stands 265 to 268 °C; under `O=C(CCCCN1CCOCC1)c1ccc2c(c1)Cc1cc(C(=O)CCCCN3CCOCC3)ccc1-2`, 134 to 136 °C; under `COC(=O)Cn1c(=O)c2ccccc2n(CCCCCl)c1=O`, 119 to 120 °C.

`CSc1nc(NC(=O)C2([N+](=O)[O-])C=CC=CC2S(N)(=O)=O)nn1C` (stereo not given) displayed a melting point of 210 to 213 °C.
